Converted amounts (≈) assume the structure as drawn. Each block holds one compound with its values, some of them ahead of it.
What was measured:
[1] = system: HepG2; assay: Cytotoxicity against human HepG2 cells assessed as reduction in cell viability measured for 48 hrs by SRB assay; format: functional
[2] = system: Plasmodium falciparum; assay: Antimalarial activity against CQ-resistant Plasmodium falciparum Dd2; format: functional, organism-based
[3] = system: Plasmodium falciparum; assay: microbe, parasite or virus in culture; details: 3D7, 72 h
[4] = system: Plasmodium falciparum; assay: microbe, parasite or virus in culture; details: 3D7, 48 h
[5] = system: Plasmodium falciparum; assay: microbe, parasite or virus in culture; details: 3D7
[6] = system: Plasmodium falciparum; assay: Antimalarial activity against Plasmodium falciparum 3D7 assessed as reduction in malarial growth measured after 48 hrs by SYBR green dye based analysis; format: functional, organism-based; details: 3D7, 48 h
[7] = system: Plasmodium falciparum; format: functional, organism-based; details: W2
[8] = system: Plasmodium falciparum; assay: Antiplasmodial activity against Plasmodium falciparum K1; format: functional, organism-based
[9] = Cytotoxicity against human MRC5 cells assessed as inhibition of cell growth incubated for 72 hrs by MTT assay; format: toxicity, cell-based
[10] = system: Plasmodium falciparum; assay: Antiplasmodial activity against multidrug resistant Plasmodium falciparum K1 assessed as reduction in parasite growth by [3H]-hypoxanthine incorporation assay; format: functional, organism-based
[11] = system: HepG2; assay: Cytotoxicity against human HepG2 cells assessed as reduction in cell viability measured for 48 hrs by MTT assay; format: functional
[12] = system: Plasmodium falciparum; assay: Antimalarial activity against Plasmodium falciparum RKL9; format: functional, organism-based
[13] = system: Plasmodium falciparum; assay: Antiplasmodial activity against Plasmodium falciparum Dd2 assessed as reduction in parasite growth measured after 72 hrs by SYBR Green 1 staining based assay; format: functional, organism-based; details: Dd2, 72 h

Compound: Cc1ccccc1N(C)C(=O)C(c1cccnc1)N(Cc1cccc(SC(F)(F)F)c1)C1CC1 (stereo unspecified)
CC50 [1]: > 30 µM

Compound: COc1ccc2nc(/C=C/c3ccncc3)cc(NCCN(C)C)c2c1
IC50 [2]: 0.03 µM

Compound: COc1ccc2cc3[n+](cc2c1OCc1cn(-c2ccc(S(=O)(=O)Nc4nc(C)cc(C)n4)cc2)nn1)CCc1cc2c(cc1-3)OCO2.[Cl-]
IC50 [6]: 4 µg/mL

Compound: Cc1cc(C)nc(NS(=O)(=O)c2ccc(-n3cc(COc4ccc5c(-c6ccccc6)c(C)c(=O)oc5c4)nn3)cc2)n1
IC50 [6]: > 67.3 µM

Compound: COc1ncnc(NS(=O)(=O)c2ccc(N)cc2)c1OC [SULFADOXINE]
IC50 [7]: 15 µM

Compound: Cc1ccccc1N(C)C(=O)C(c1cccnc1)N(Cc1cc(C(F)(F)F)ccc1F)C1CC1 (stereo unspecified)
CC50 [1]: > 30 µM

Compound: Cc1nn(-c2ccccc2)c(-n2ccnc2)c1-c1cc(-c2ccc(F)cc2)nc2nc3ccccc3n12
IC50 [4]: 0.03 µg/mL (≈ 0.0618 µM)

Compound: Cc1ccccc1N(C)C(=O)C(c1cncnc1)N(Cc1cccc(OC(F)(F)F)c1)C1CC1 (stereo unspecified)
EC50 [10]: 0.59 µM | CC50 [11]: > 30 µM

Compound: O=C(N/N=C/c1cn(-c2ccccc2)nn1)c1ccncc1
IC50 [5]: 23.1 µM

Compound: Cc1cc(C)nc(NS(=O)(=O)c2ccc(-n3cc(COc4ccc5c(C)cc(=O)oc5c4)nn3)cc2)n1
IC50 [6]: 20.5 µM

Compound: NCCCCNc1ncnc2c1cnn2-c1ccc(F)cc1
IC50 [7]: 21.6 µM

Compound: Cc1ccccc1N(C)C(=O)C(c1cccnc1)N(Cc1cccc(C(F)(F)F)c1)C1CC1 (stereo unspecified)
CC50 [1]: > 20 µM

Compound: Cc1ccccc1-n1nnnc1C(c1cncnc1)N(Cc1cc(F)cc(C(F)(F)F)c1)C1CC1 (stereo unspecified)
EC50 [13]: 1.2 µM | CC50 [1]: 36 µM

Compound: COc1ccc2nc(/C=C/c3ccncc3)cc(Cl)c2c1
IC50 [2]: 2.54 µM

Compound: CCCN(C(C(=O)N(C)c1ccccc1C)c1cccnc1)C1(c2cccc(C(F)(F)F)c2)CC1 (stereo unspecified)
CC50 [1]: > 15 µM

Compound: Cc1ccc(-n2ncc3c(NCCCCN)ncnc32)cc1
IC50 [7]: 18.2 µM

Compound: COc1ccc2cc3[n+](cc2c1OCc1cn(-c2ccc(S(=O)(=O)N4CCN(c5ccccn5)CC4)cc2)nn1)CCc1cc2c(cc1-3)OCO2.[Cl-]
IC50 [5]: 1 µg/mL

Compound: C[C@H]1[C@H](OC(=O)CCC(=O)O)O[C@@H]2O[C@@]3(C)CC[C@H]4[C@H](C)CC[C@@H]1[C@@]24OO3 [ARTESUNATE]
IC50 [3]: 1 µM

Compound: Cc1n[nH]c2c1C(c1ccc(Cl)cc1)c1c(nc3oc(=O)c(C#N)c(N)c3c1N)O2 (stereo unspecified)
IC50 [5]: 0.84 µg/mL

Compound: CN(C(=O)C(c1cncnc1)N(Cc1cccc(C(F)(F)F)c1)C1CC1)c1ccccc1 (stereo unspecified)
EC50 [10]: 2 µM | CC50 [11]: > 30 µM

Compound: Cc1ccccc1N(C)C(=O)C(c1cncnc1)N(Cc1cccc(SC(F)(F)F)c1)C1CC1 (stereo unspecified)
EC50 [10]: 1 µM | CC50 [11]: > 30 µM

Now from value to compound, other results behind:

IC50 [3]: 0.08 µM
Compound: Cc1cc(Nc2ccc(S(=O)(=O)Nc3ccc(F)cc3)cc2)n2nc(C(F)(F)F)nc2n1

IC50 [4]: 0.04 µg/mL (≈ 0.0822 µM)
Compound: Cc1nn(-c2ccccc2)c(-n2cncn2)c1-c1cc(-c2ccc(F)cc2)nc2nc3ccccc3n12

IC50 [5]: > 50 µg/mL
Compound: O=S(=O)(c1ccc(-n2cc(COc3ccc(F)cc3)nn2)cc1)N1CCN(c2ccccn2)CC1

IC50 [8]: 8 µM
Compound: Cc1cccc(-n2nc3ccc(S(=O)(=O)N4CCC(C)CC4)cn3c2=O)c1
IC50 at 72 h [9]: > 64 µM

IC50 [4]: 1.75 µg/mL (≈ 3.7 µM)
Compound: Cc1nn(-c2ccccc2)c(-n2ccnc2)c1-c1cc(-c2cccs2)nc2nc3ccccc3n12

IC50 [12]: 6.1 µg/mL (≈ 12.8 µM) | IC50 [4]: 9.9 µg/mL (≈ 20.8 µM)
Compound: COc1cc(-c2cc(-c3cc(Cl)sc3Cl)nc(S)n2)ccc1OCc1ccccc1

IC50 [3]: 0.03 µM
Compound: Cc1ccc(NS(=O)(=O)c2ccc(Nc3cc(C)nc4nc(C(F)(F)F)nn34)cc2)cc1

IC50 [4]: 0.09 µg/mL (≈ 0.197 µM)
Compound: Cc1nn(-c2ccccc2)c(-n2cncn2)c1-c1cc(-c2cc[nH]c2)nc2nc3ccccc3n12

IC50 [5]: 73.5 µg/mL
Compound: O=c1cc(OCc2cn(-c3ccc(S(=O)(=O)N4CCN(c5ccccn5)CC4)cc3)nn2)c2ccccc2o1

IC50 [8]: 11.5 µM
Compound: Cc1cc(C)cc(N(Cc2cc(C)ccc2C)S(=O)(=O)c2cccn3c(C)nnc23)c1
IC50 at 72 h [9]: 48.5 µM

IC50 [5]: 23.2 µM
Compound: COc1ccc(-n2cc(/C=N/NC(=O)c3ccncc3)nn2)cc1

IC50 [5]: 0.48 µg/mL
Compound: COc1ccccc1C(=O)/C=C/c1ccccn1

IC50 [5]: 0.96 µg/mL
Compound: COc1ccc(C2c3c(C)n[nH]c3Oc3nc4oc(=O)c(C#N)c(N)c4c(N)c32)cc1OC (stereo unspecified)

IC50 [12]: 2.2 µg/mL (≈ 4.63 µM) | IC50 [4]: 4.2 µg/mL (≈ 8.83 µM)
Compound: COc1ccc(-c2cc(-c3cc(Cl)sc3Cl)nc(S)n2)cc1OCc1ccccc1

IC50 [5]: > 71.7 µg/mL
Compound: Cc1cc(=O)oc2cc(OCc3cn(-c4ccc(S(=O)(=O)N5CCN(c6ccccn6)CC5)cc4)nn3)ccc12

IC50 [5]: > 50 µg/mL
Compound: O=S(=O)(c1ccc(-n2cc(COc3ccc(Cl)cc3)nn2)cc1)N1CCN(c2ccccn2)CC1

IC50 [5]: > 50 µg/mL
Compound: O=[N+]([O-])c1ccc(OCc2cn(-c3ccc(S(=O)(=O)N4CCN(c5ccccn5)CC4)cc3)nn2)cc1

IC50 [5]: 12 µg/mL
Compound: O=S(=O)(c1ccc(-n2cc(COc3ccc(I)cc3)nn2)cc1)N1CCN(c2ccccn2)CC1

IC50 [5]: 48.5 µg/mL
Compound: O=S(=O)(c1ccc(-n2cc(COc3ccccc3)nn2)cc1)N1CCN(c2ccccn2)CC1

IC50 [12]: 10.5 µg/mL (≈ 28.1 µM) | IC50 [4]: 20 µg/mL (≈ 53.6 µM)
Compound: COc1cc(-c2cc(-c3ccco3)nc(N)n2)ccc1OCc1ccccc1

IC50 [5]: > 50 µg/mL
Compound: Cc1cc(C)nc(NS(=O)(=O)c2ccc(-n3cc(COc4ccccc4)nn3)cc2)n1

Reference: ChEMBL document CHEMBL6087390, “Pyridine and Pyrimidine hybrids as privileged scaffolds in antimalarial drug discovery: A recent development” (Bioorg Med Chem Lett, 2024)
